Here are results for 5 compounds from patent US12655173B2, “Hybrid amide derivatives of amphotericin B” (priority 2020, dated 2026).

SMILES strings stand for the structures. Values after ≈ are worked out from the molar mass of the structure shown.

As a reminder, the MIC is the least concentration at which growth counts as inhibited.

Data set [1] can be described thus: In vivo toxicity in murine model: mice alive / distress-free. The note with it: 45 mg/kg IV, 24 h.
Data set [2] is described as follows: In vivo tolerance in mice: survival and distress. Particulars: tail vein, 24 h.
Data set [3] concerns Af F16216, azole resistant (L98H + TR). Put plainly: MIC against azole and echinocandin resistant fungal strains (CLSI). The data set is classed as cell-based. Particulars: read-out: MIC Af F16216. As for the experimental part:
(§1) This experiment was performed following the standard CLSI protocol.

The test system of a further data set is CEA10 (clinical isolate). Described as above. Particulars: read-out: MIC CEA10. The class given is cell-based, A. funigatus. Here is the method:
as §1

In data set [4] the test system is Af F16134, azole resistant (M220K). The description is as above. The class given is cell-based. The note with it: read-out: MIC Af F16134. Here is the method:
as §1

The subject of data set [5] is Af F7075, azole resistant (G54E). The description is as above. The note with it: read-out: MIC Af F7075. The data set is classed as cell-based. As for the experimental part: as §1
A further data set concerns Af 3626 (ATCC strain). The data set is described as above. The data set is classed as cell-based. The note with it: read-out: MIC Af 3626. Here is the method: as §1
Data set [6] concerns EMFR-S678P, echinocandin resistant. The data set is described as above. The class given is cell-based. Particulars: read-out: MIC EMFR-S678P. As for the experimental part: as §1
Data set [7] has as its system Af F14946, azole resistant (G138C). The description is as above. The data set is classed as cell-based. Particulars: read-out: MIC Af F14946. As for the experimental part:
as §1

In data set [8] the test system is Af F12776, azole resistant (Y431C). The data set is described as above. The class given is cell-based. The note with it: read-out: MIC Af F12776. As for the experimental part:
as §1

Take `C[C@@H]1[C@H](O)[C@@H](C)/C=C/C=C/C=C/C=C/C=C/C=C/C=C/[C@H](O[C@@H]2O[C@H](C)[C@@H](O)[C@H](N)[C@H]2O)C[C@@H]2O[C@](O)(C[C@@H](O)C[C@@H](O)[C@H](O)CC[C@@H](O)C[C@@H](O)CC(=O)O[C@H]1C)C[C@H](O)[C@H]2C(=O)O` [C2′epiAmB]: in data set [1], the “# of mice alive” value is recorded as 4/4 and the “# of mice distress-free” value was 4/4.

For the compound `C[C@H](CCC(=O)O)[C@H]1CC[C@H]2[C@@H]3CC[C@@H]4C[C@H](O)CC[C@]4(C)[C@H]3C[C@H](O)[C@]12C` [Deoxycholate], the Distressed in [2] (Dose 1 mg/kg), in [2] (Dose 4 mg/kg) and in data set [2] (Dose 45 mg/kg) was 0/4 each time. The “Survival (alive/total)” value in data set [2] (Dose 1 mg/kg), in [2] (Dose 4 mg/kg) and in data set [2] (Dose 45 mg/kg) was 4/4 throughout.

With `CC[C@@H]([C@H](C)O)n1ncn(-c2ccc(N3CCN(c4ccc(OC[C@@H]5CO[C@@](Cn6cncn6)(c6ccc(F)cc6F)C5)cc4)CC3)cc2)c1=O` [Posaconazole], the MIC in data set [3] came to 1.43 µM (≈ 1 µg/mL); with CEA10 (clinical isolate), 0.18 µM (≈ 0.126 µg/mL).

With `CC[C@H](C)C[C@H](C)CCCCCCCCC(=O)N[C@H]1C[C@@H](O)[C@@H](NCCN)NC(=O)[C@@H]2[C@@H](O)CCN2C(=O)[C@H]([C@H](O)CCN)NC(=O)[C@H]([C@H](O)[C@@H](O)c2ccc(O)cc2)NC(=O)[C@@H]2C[C@@H](O)CN2C(=O)[C@H]([C@@H](C)O)NC1=O` [Caspofungin], the MIC in [3] was 0.41 µM (≈ 0.448 µg/mL); in [4], 0.21 µM (≈ 0.23 µg/mL); in data set [5] it was 0.82 µM (≈ 0.897 µg/mL); with Af 3626 (ATCC strain) it was 0.41 µM (≈ 0.448 µg/mL); in data set [6], above 3.3 µM.

Turning to `C[C@@H](c1ncncc1F)[C@](O)(Cn1cncn1)c1ccc(F)cc1F` [Voriconazole], the MIC in data set [7] is above 11.5 µM; in [3], above 11.5 µM; in data set [4], above 11.5 µM; in data set [5], 5.73 µM (≈ 2 µg/mL); in [8], above 11.5 µM; in the data set on Af 3626 (ATCC strain) it was 0.72 µM (≈ 0.252 µg/mL).
